According to BindingDB's records for PubMed 7915318 (Ohio State University, 1994):
“And” between values parts separate entries of the source, which are not always exact repeats. Equal values may be shown once.

Experiments:
[1] = molecular target: Beta-2 adrenergic receptor (Cavia porcellus, UniProt Q8K4Z4)
[2] = molecular target: Beta-2 adrenergic receptor (Homo sapiens, UniProt P07550)
[3] = molecular target: Beta-1 adrenergic receptor (Cavia porcellus, UniProt B0FL73)
[4] = molecular target: Beta-1 adrenergic receptor (Homo sapiens, UniProt P08588)
Beta-1 adrenergic receptor (Homo sapiens, UniProt P08588), sequence (P08588 whole entry): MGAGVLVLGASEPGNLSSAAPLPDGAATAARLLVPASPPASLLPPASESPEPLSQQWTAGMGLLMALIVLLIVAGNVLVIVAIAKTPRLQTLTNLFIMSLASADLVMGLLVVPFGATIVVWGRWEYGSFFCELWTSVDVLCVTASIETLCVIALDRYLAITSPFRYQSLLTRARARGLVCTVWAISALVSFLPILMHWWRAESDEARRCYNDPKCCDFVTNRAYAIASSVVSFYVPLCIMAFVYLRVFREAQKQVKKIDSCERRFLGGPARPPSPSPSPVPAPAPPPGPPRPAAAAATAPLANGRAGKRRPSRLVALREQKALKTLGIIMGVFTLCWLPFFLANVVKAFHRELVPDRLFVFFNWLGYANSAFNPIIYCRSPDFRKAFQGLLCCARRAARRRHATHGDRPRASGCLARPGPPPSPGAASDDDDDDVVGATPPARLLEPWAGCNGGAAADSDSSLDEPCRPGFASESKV

Beta-1 adrenergic receptor (Cavia porcellus, UniProt B0FL73), sequence (B0FL73 whole entry): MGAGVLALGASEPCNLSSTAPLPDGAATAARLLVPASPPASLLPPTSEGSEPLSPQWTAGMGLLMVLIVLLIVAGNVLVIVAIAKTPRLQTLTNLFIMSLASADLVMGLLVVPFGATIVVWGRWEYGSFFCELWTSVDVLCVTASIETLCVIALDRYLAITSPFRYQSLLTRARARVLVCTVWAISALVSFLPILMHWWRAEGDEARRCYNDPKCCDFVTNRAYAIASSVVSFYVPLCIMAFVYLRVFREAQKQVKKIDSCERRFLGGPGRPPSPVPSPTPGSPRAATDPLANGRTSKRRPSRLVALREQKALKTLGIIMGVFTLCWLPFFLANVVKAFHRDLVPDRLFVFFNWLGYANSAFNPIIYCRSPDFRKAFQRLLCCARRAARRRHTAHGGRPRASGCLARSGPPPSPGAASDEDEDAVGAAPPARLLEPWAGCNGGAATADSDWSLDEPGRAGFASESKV
Beta-2 adrenergic receptor (Cavia porcellus, UniProt Q8K4Z4), sequence (Q8K4Z4 whole entry): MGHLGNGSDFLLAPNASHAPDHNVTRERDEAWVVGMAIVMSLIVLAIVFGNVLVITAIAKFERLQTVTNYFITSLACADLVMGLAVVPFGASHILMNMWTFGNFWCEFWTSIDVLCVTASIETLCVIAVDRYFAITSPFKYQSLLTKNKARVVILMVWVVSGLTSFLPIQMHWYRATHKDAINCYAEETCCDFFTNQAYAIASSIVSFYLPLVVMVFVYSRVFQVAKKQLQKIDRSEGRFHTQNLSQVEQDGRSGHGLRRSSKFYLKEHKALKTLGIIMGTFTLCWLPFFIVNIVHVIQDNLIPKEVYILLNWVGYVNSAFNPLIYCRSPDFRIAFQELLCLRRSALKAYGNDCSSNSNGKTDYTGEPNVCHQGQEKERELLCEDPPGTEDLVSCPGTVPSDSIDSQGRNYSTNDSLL
Beta-2 adrenergic receptor (Homo sapiens, UniProt P07550), sequence (P07550 whole entry): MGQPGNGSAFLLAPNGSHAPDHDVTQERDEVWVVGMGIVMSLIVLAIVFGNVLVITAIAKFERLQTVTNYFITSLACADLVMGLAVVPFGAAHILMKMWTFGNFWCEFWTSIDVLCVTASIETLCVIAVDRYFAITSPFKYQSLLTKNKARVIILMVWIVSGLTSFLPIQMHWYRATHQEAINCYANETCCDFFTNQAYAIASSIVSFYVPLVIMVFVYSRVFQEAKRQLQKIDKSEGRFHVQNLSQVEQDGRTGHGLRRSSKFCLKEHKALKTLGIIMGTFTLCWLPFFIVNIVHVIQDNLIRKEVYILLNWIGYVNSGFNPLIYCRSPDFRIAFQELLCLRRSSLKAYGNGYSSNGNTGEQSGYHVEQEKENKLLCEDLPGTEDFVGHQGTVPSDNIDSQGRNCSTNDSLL

SMILES	Ki [1]	Ki [2]	Ki [3] [nM]	Ki [4] [nM]
COc1c(I)cc(CC2NCCc3cc(O)c(O)cc32)cc1I (stereo unspecified) [TMQ, 3',5'-Diiodo]	2.81 nM and 0.97 nM	0.58 nM and 0.74 nM	10.5	
COc1cc(CC2c3cc(O)c(O)cc3CCN2Cc2ccc(Cl)c(Cl)c2)cc(OC)c1OC (stereo unspecified) [TMQ, N-dichlorobenzyl]	1860 nM		3550	
COc1cc(CC2NCCc3cc(O)c(O)cc32)cc(OC)c1OC (stereo unspecified) [1-(3,4,5-Trimethoxy-benzyl)-1,2,3,4-tetrahydro-isoquinoline-6,7-diol]	105 nM and 22.9 nM			
COc1cc(CC2NCCc3cc(O)c(O)cc32)cc(N)c1OC (stereo unspecified) [TMQ, 3'-Amino]	490 nM and 97.7 nM	141 nM	457	214
COc1cc(C[C@H]2NCCc3cc(O)c(O)cc32)cc(OC)c1OC [TMQ, R-(+)]	> 10000 nM and 9330 nM		> 10000	
COc1cc(C[C@@H]2NCCc3cc(O)c(O)c(F)c32)cc(OC)c1OC [TMQ, S-(+)-8-Fluoro]		10.2 nM		67.6
COc1cc(CC2NCCc3cc(O)c(O)cc32)cc(I)c1OC (stereo unspecified) [TMQ, 3'-Iodo]	1.09 nM and 2.34 nM	2.69 nM and 1.69 nM	10	12.6
COc1cc(CC2NCCc3c2cc(O)c(O)c3C(F)(F)F)cc(OC)c1OC (stereo unspecified) [TMQ, 5-TrifluoroMe]	1170 nM and 912 nM		1100	
COc1cc(CC2c3cc(O)c(O)cc3CCN2Cc2cccc(Cl)c2)cc(OC)c1OC (stereo unspecified) [TMQ, N-chloro-benzyl]	1260 nM		6170	
COc1cc(CC2c3cc(O)c(O)cc3CCN2CCO)cc(OC)c1OC (stereo unspecified) [TMQ, N-hydroxyethyl]	2750 nM		5370	
COc1cc(CC2=NCCc3cc(O)c(O)cc32)cc(OC)c1OC [TMQ, Amidine]	> 10000 nM			
COc1cc(CC2NCCc3cc(O)c(O)c(I)c32)cc(OC)c1OC (stereo unspecified) [TMQ, 8-Iodo]	363 nM and 380 nM	759 nM and 437 nM	631	
COc1cc(CC2NCCc3c2cc(O)c(O)c3I)cc(OC)c1OC (stereo unspecified) [TMQ, 5-Iodo]	37.1 nM and 11.5 nM	10.2 nM	33.9	
CC(C)NCC(O)c1ccc(O)c(O)c1 (stereo not drawn) [Isoproterenol,(+)]	324 nM and 107 nM			
COc1cc(CC2c3cc(O)c(O)cc3CCN2Cc2ccccc2)cc(OC)c1OC (stereo unspecified) [TMQ, N-benzyl]			1100	
COc1cc(CC2NCCc3cc(O)c(O)cc32)cc2c1OS(=O)O2 (stereo unspecified) [TMQ, Cyclic sulfite]	3470 nM and 1950 nM		> 10000	
COc1cc(CC2NCCc3cc(O)c(O)c(F)c32)cc(OC)c1OC (racemic) [NSC_128658]		8.7 nM		37.1
CC(C)(C)NCC(O)c1cc(O)cc(O)c1 (racemic) [Terbutaline,(+/-)]			> 10000	
COc1cc(C[C@H]2NCCc3cc(O)c(O)c(F)c32)cc(OC)c1OC [TMQ, R-(-)-8-Fluoro]		437 nM		417
COc1cc(CC2c3cc(O)c(O)cc3CCN2Cc2cccc([N+](=O)[O-])c2)cc(OC)c1OC (stereo unspecified) [TMQ, N-nitro-benzyl]	1620 nM and 1480 nM			
COc1cc(CC2NCCc3cc(O)c(O)cc32)cc([N+](=O)[O-])c1OC (stereo unspecified) [TMQ, 3'-Nitro]	11 nM and 2.75 nM	46.8 nM	31.6	14.8
COc1cc(CC2c3cc(O)c(O)cc3CCN2Cc2cccc(N)c2)cc(OC)c1OC (stereo unspecified) [TMQ, N-amino-benzyl]	3720 nM and 1320 nM	933 nM		
COc1cc(C[C@@H]2NCCc3cc(O)c(O)cc32)cc(OC)c1OC [CAS_65772]	27.5 nM and 9.77 nM		110	
CC(C)NCC(O)COc1cccc2[nH]ccc12 (stereo unspecified) [LB-46]	2.63 nM and 1.14 nM		7.24	
COc1cc(CC2NCCc3c(F)c(O)c(O)c(F)c32)cc(OC)c1OC (stereo unspecified) [TMQ, 5,8-Difluoro]	6.6 nM and 4.26 nM	8.7 nM and 6.16 nM	34.7	7.41
COc1cc(CC2c3cc(O)c(O)cc3CCN2C)cc(OC)c1OC (stereo unspecified) [TMQ, N-methyl]	851 nM			
